This is an account of results in PubChem BioAssay (NCI).

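A five-concentration, 48-hour dose response in 96-well plates underlies each endpoint, interpolated linearly between surrounding concentrations. At the GI50, growth is halved. TGI is the concentration that stops growth completely.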

Among the test systems are NCI/ADR-RES ovarian; SF-268 CNS; OVCAR-4 ovarian; OVCAR-5 ovarian; UO-31 renal; NCI-H226 lung; NCI-H23 lung; NCI-H460 lung; HCT-15 colon; TK-10 renal.
What all share (test): NCI anticancer screen, dose series, 48 h

For `CNC(=O)OCc1nc(SC(C)C)n(C)c1COC(=O)NC`, the TGI in the experiment on NCI/ADR-RES ovarian, in the experiment on SF-268 CNS, in the experiment on OVCAR-4 ovarian, with OVCAR-5 ovarian, with UO-31 renal and with NCI-H226 lung was greater than 100 µM in each case. Moreover, the TGI with NCI-H23 lung, in the experiment with NCI-H460 lung and with HCT-15 colon was greater than 100 µM in each case.

Consider `O=C1CC(=O)N(C2CCCCC2)C(=O)N1c1ccccc1S(=O)(=O)Oc1ccccc1`, for which the TGI in the experiment with NCI/ADR-RES ovarian is greater than 100 µM; in the experiment with TK-10 renal it was greater than 100 µM; in the experiment on SF-268 CNS, greater than 100 µM; in the experiment on OVCAR-4 ovarian it was greater than 100 µM; in the experiment with OVCAR-5 ovarian it was greater than 100 µM; in the experiment with UO-31 renal, 33 µM. Further, the TGI in the experiment on NCI-H460 lung and in the experiment with HCT-15 colon was greater than 100 µM in each case.

For `COC(=O)Nc1nc2ccc(C(=O)c3ccc[nH]3)cc2[nH]1`, the TGI in the experiment on NCI/ADR-RES ovarian is 9.01 µM; in the experiment with TK-10 renal, greater than 93.6 µM; in the experiment with SF-268 CNS, greater than 100 µM; in the experiment on OVCAR-4 ovarian it was greater than 100 µM; in the experiment with OVCAR-5 ovarian, greater than 100 µM; with NCI-H23 lung it was greater than 100 µM. The TGI in the experiment with NCI-H460 lung and with HCT-15 colon was greater than 100 µM each time.

Take `COc1cc2c(cc1OC)C(=O)C(Br)CC2` (stereo not drawn): the GI50 in the experiment on NCI/ADR-RES ovarian is 4.5 µM; in the experiment on TK-10 renal, 5.17 µM; with SF-268 CNS it was 4.36 µM; in the experiment on OVCAR-5 ovarian, 5.47 µM; with UO-31 renal, 2.38 µM; in the experiment with NCI-H23 lung, 2.89 µM. The GI50 is 4.27 µM in the experiment on NCI-H460 lung and 2.33 µM in the experiment on HCT-15 colon. The TGI in the experiment on NCI/ADR-RES ovarian was 37.3 µM; in the experiment on TK-10 renal, 17.8 µM; with SF-268 CNS, 15.7 µM; in the experiment on OVCAR-5 ovarian, 18.2 µM; in the experiment on UO-31 renal it was 6.77 µM; in the experiment on NCI-H23 lung it was 10.9 µM. The TGI in the experiment on NCI-H460 lung was 16.9 µM; in the experiment with HCT-15 colon, 7.37 µM.

With `CC(Cc1ccc(Cl)cc1Cl)NO` (stereo not drawn), the TGI in the experiment with NCI/ADR-RES ovarian, in the experiment on TK-10 renal, in the experiment on SF-268 CNS, in the experiment on OVCAR-4 ovarian, with OVCAR-5 ovarian and in the experiment on UO-31 renal was greater than 100 µM in each case. The TGI with NCI-H226 lung, with NCI-H23 lung and in the experiment on HCT-15 colon was greater than 100 µM each time.

On to `Cc1ccc(-c2c(C#N)c(N)nc(N3CCOCC3)c2C#N)o1`, for which the GI50 with NCI/ADR-RES ovarian was 33.6 µM; with TK-10 renal it was 35.4 µM; in the experiment on SF-268 CNS it was greater than 100 µM; in the experiment on OVCAR-4 ovarian, 55.5 µM; in the experiment on OVCAR-5 ovarian it was 27.4 µM; in the experiment with UO-31 renal, 21.2 µM. Further, the GI50 with NCI-H226 lung is 46.8 µM; with NCI-H460 lung it was 43.3 µM. Further, the TGI is greater than 100 µM with NCI/ADR-RES ovarian; greater than 100 µM in the experiment with TK-10 renal; greater than 100 µM in the experiment with SF-268 CNS; greater than 100 µM with OVCAR-4 ovarian; greater than 100 µM in the experiment with OVCAR-5 ovarian; 84 µM in the experiment on UO-31 renal. For the same compound, the TGI in the experiment with NCI-H226 lung and in the experiment on NCI-H460 lung was greater than 100 µM each time.

In the case of `ClC(=Nc1cccc2ccccc12)N(c1ccccc1)c1ccccc1`, the TGI with NCI/ADR-RES ovarian, in the experiment on TK-10 renal, with OVCAR-4 ovarian, in the experiment with OVCAR-5 ovarian, in the experiment on UO-31 renal and with NCI-H23 lung was greater than 100 µM each time. Moreover, the TGI was 90.8 µM in the experiment with NCI-H460 lung and greater than 100 µM with HCT-15 colon.

Regarding `O=C1C2=C(c3ccccc31)C(c1cccc(Cl)c1)NC(=S)N2` (stereo not drawn), the TGI in the experiment with TK-10 renal, in the experiment on SF-268 CNS, in the experiment with OVCAR-4 ovarian, in the experiment on OVCAR-5 ovarian, in the experiment with UO-31 renal and in the experiment on NCI-H226 lung was greater than 100 µM each time. The TGI in the experiment with NCI-H23 lung, in the experiment on NCI-H460 lung and in the experiment on HCT-15 colon was greater than 100 µM each time.

As to `CC12OC(C(=O)C13CC3)C1C(=O)c3ccccc3C(=O)C12` (stereo not drawn), the GI50 in the experiment with NCI/ADR-RES ovarian is 24.5 µM; in the experiment with TK-10 renal, 22.8 µM; in the experiment with SF-268 CNS, 19.2 µM; in the experiment with OVCAR-5 ovarian, 47.4 µM; in the experiment with UO-31 renal, 32.8 µM; in the experiment with NCI-H23 lung it was 29.5 µM. In the experiment on NCI-H460 lung, the GI50 is 29.9 µM. For the same compound, the TGI with NCI/ADR-RES ovarian was 77 µM; in the experiment on TK-10 renal it was 58.8 µM; in the experiment with SF-268 CNS it was 46.2 µM; in the experiment with OVCAR-5 ovarian, greater than 100 µM; in the experiment on UO-31 renal, greater than 100 µM; with NCI-H23 lung, greater than 100 µM. For the same compound, in the experiment with NCI-H460 lung, the TGI was greater than 100 µM.

`C/C(=N\N(C)C)c1sc(-n2nc(-c3ccccc3)cc2-c2ccccc2)nc1C`: the TGI in the experiment with TK-10 renal was greater than 100 µM; in the experiment with SF-268 CNS, greater than 100 µM; in the experiment with OVCAR-4 ovarian, greater than 100 µM; in the experiment on OVCAR-5 ovarian it was 82.4 µM; in the experiment with UO-31 renal, greater than 100 µM; with NCI-H226 lung, greater than 100 µM. Moreover, the TGI with NCI-H23 lung, in the experiment with NCI-H460 lung and with HCT-15 colon was greater than 100 µM throughout.

As for `NC(N)=NC(CC(=O)O)c1ccccc1` (stereo not drawn), the TGI in the experiment with NCI/ADR-RES ovarian, in the experiment with TK-10 renal, in the experiment on SF-268 CNS, in the experiment on OVCAR-4 ovarian, with OVCAR-5 ovarian and in the experiment with UO-31 renal was greater than 100 µM throughout. In addition, the TGI in the experiment on NCI-H23 lung, in the experiment on NCI-H460 lung and in the experiment on HCT-15 colon was greater than 100 µM in each case.

Turning to `CCOC(=O)/N=c1\ss/c(=N\C(=S)N(C)C)n1-c1ccccc1`, the TGI with TK-10 renal, in the experiment with SF-268 CNS, in the experiment on OVCAR-5 ovarian, with UO-31 renal, in the experiment on NCI-H226 lung and in the experiment on NCI-H23 lung was greater than 100 µM in each case. The TGI in the experiment with NCI-H460 lung and in the experiment with HCT-15 colon was greater than 100 µM throughout. Further, the GI50 with SF-268 CNS was 44.7 µM; in the experiment on OVCAR-4 ovarian, greater than 100 µM; with UO-31 renal, greater than 100 µM; in the experiment on NCI-H226 lung it was greater than 100 µM; in the experiment on NCI-H460 lung, 35.2 µM; in the experiment with HCT-15 colon, greater than 100 µM.

Take `CC1=COC(=O)c2ccccc2N1`: the TGI with TK-10 renal, in the experiment on SF-268 CNS, with OVCAR-4 ovarian, with OVCAR-5 ovarian, in the experiment with UO-31 renal and with NCI-H226 lung was greater than 100 µM each time. Besides, the TGI with NCI-H23 lung, in the experiment on NCI-H460 lung and in the experiment with HCT-15 colon was greater than 100 µM throughout.
